Like-named read-outs stand apart in the source and are kept apart here.
Assays:
[1] = biological target: T1, human GLP-1 receptor (hGLP-1R) (Homo sapiens, UniProt P43220); experiment: [125I]-GLP-1 binding, SPA with membranes of HEK293 cells expressing hGLP-1R; conditions: human GLP-1R; geometric mean (SEM, n); read-out: Binding Affinity Ki, nM (SEM, n) hGLP-1R
T1 construct: expressed in transfected cells; crude membranes

[2] = biological target: T2, human GIP receptor (hGIPR) (Homo sapiens, UniProt P48546); experiment: [125I]-GIP binding, SPA with membranes of CHO cells expressing hGIPR; conditions: human GIPR; geometric mean (SEM, n); read-out: Binding Affinity Ki, nM (SEM, n) hGIPR
T2 construct: expressed in transfected cells; crude membranes
T2 sequence (P48546 22-466): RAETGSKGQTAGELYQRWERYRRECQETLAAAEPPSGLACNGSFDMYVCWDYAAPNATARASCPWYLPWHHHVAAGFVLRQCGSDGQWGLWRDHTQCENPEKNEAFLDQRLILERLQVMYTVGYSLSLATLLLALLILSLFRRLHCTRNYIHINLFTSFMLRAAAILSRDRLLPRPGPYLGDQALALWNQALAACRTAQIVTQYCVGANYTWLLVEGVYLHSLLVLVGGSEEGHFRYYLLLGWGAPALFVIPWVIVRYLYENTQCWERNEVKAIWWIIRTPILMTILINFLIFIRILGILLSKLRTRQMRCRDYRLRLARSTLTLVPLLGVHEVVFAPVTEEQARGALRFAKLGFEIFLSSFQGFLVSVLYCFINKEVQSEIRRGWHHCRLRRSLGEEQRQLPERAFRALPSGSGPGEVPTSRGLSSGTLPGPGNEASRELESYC

[3] = biological target: T3, hGIPR (Homo sapiens, UniProt P48546); experiment: Functional cAMP formation (HTRF) in HEK-293 clonal cells expressing hGIPR, 0.1% bovine casein, without or with 1.0% human serum albumin; format: cell-based; conditions: 37° C.; for Emax: percent of maximal response to GIP(1-42)NH2, read-out: hGIPR Emax, % ± SEM; for EC50: cAMP, read-out: hGIPR EC50, nM (SEM, n)
T3 construct: expressed in transfected cells
T3 sequence (P48546 22-466): T2 sequence (P48546 22-466)
Method in brief: (§1)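 Cells were stimulated with peptide for 30 min at 37° C, then lysed in buffer carrying cAMP-d2 and anti-cAMP Eu3+-cryptate for a competitive HTRF read after at least 60 min at room temperature. The 665/620 nm ratio was converted to nM cAMP against a standard curve.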

[4] = biological target: T4, hGCGR (Homo sapiens, UniProt P47871); experiment: Functional cAMP formation (HTRF) in HEK-293 clonal cells expressing hGCGR, 0.1% bovine casein, without or with 1.0% human serum albumin; format: cell-based; conditions: 37° C., read-out: hGCGR EC50, nM (SEM, n)
T4 construct: expressed in transfected cells
Method in brief: as §1

[5] = biological target: hGLP-1R (Homo sapiens, UniProt P43220); experiment: Functional cAMP formation (HTRF) in HEK-293 clonal cells expressing hGLP-1R, 0.1% bovine casein, without or with 1.0% human serum albumin; format: cell-based; set-up: expressed in transfected cells; conditions: 37° C.; for Emax: HEK293, cAMP, 0.1% bovine casein, percent of maximal response to GLP-1(7-36)NH2, arithmetic mean, read-out: hGLP-1R Emax, % ± SEM; for EC50: cAMP, read-out: hGLP-1R EC50, nM (SEM, n)
Method in brief: as §1

[6] = HEK293, cAMP, 0.1% bovine casein and 1.0% human serum albumin
[7] = 0.1% bovine casein (no human serum albumin), geometric mean
[8] = cAMP, 0.1% bovine casein (no human serum albumin), geometric mean
[9] = cAMP, 0.1% bovine casein and 1.0% human serum albumin, geometric mean (SEM, n)
[10] = HEK293, cAMP, 0.1% bovine casein, arithmetic mean
[11] = 0.1% bovine casein and 1.0% human serum albumin, geometric mean (SEM, n)

T4 sequence (P47871 26-477): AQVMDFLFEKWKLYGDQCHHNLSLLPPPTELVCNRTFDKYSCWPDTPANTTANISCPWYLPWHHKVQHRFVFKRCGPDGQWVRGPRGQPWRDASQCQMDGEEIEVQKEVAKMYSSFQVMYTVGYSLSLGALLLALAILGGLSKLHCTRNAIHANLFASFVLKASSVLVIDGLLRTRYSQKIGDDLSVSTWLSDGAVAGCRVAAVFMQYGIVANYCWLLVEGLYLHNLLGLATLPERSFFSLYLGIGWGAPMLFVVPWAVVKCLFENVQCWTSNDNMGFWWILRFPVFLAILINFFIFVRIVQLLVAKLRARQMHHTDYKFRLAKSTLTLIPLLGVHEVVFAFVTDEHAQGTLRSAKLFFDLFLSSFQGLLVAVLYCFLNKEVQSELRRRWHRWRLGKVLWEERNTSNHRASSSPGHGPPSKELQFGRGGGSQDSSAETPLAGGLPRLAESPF
Chain of hGLP-1R (P43220 24-463): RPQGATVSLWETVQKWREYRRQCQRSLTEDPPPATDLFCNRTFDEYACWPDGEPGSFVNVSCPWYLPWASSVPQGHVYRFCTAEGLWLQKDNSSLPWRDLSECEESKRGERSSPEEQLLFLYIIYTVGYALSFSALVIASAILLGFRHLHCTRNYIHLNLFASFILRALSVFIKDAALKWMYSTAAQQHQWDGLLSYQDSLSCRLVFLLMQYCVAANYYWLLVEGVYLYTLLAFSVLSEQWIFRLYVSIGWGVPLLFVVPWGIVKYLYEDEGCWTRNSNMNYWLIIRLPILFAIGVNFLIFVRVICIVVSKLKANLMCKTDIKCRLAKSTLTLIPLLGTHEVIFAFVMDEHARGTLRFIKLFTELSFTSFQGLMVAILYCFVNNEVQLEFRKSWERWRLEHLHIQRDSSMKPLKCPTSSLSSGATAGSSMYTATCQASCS
T1 sequence (P43220 24-463): as above

Row | SMILES | Ki [1] | Ki [2] | Emax [3, 6] | EC50 [3, 7] | EC50 [4, 8] | EC50 [4, 9] | Emax [5] | EC50 [5, 7] | Emax [3, 10] | EC50 [5, 11] | Emax ([3]; HEK293, 0.1% bovine casein and 1.0% human serum albumin) | EC50 ([4]; 0.1% bovine casein and 1.0% human serum albumin, geometric mean) | EC50 [3, 11]
1 | CCCCCCCCCCCC(=O)N[C@@H](CCC(=O)NCCOCCOCC(=O)NCCOCCOCC(=O)NCCCC[C@H](NC(=O)[C@H](CCCN)NC(=O)[C@H](CC(=O)O)NC(=O)[C@H](CC(C)C)NC(=O)[C@](C)(CC(C)C)NC(=O)[C@@H](NC(=O)C(C)(C)NC(=O)[C@H](CCCCNC(=O)COCCOCCNC(=O)COCCOCCNC(=O)CC[C@H](NC(=O)CCCCCCCCCCC)C(=O)O)NC(=O)[C@H](CC(=O)O)NC(=O)[C@H](CO)NC(=O)[C@@H](NC(=O)[C@](C)(Cc1ccccc1F)NC(=O)[C@@H](NC(=O)CNC(=O)[C@H](CCC(=O)O)NC(=O)C(C)(C)NC(=O)[C@@H](N)Cc1ccc(O)cc1)[C@@H](C)O)[C@@H](C)O)[C@@H](C)CC)C(=O)N[C@@H](C)C(=O)N[C@@H](CCC(N)=O)C(=O)NC(C)(C)C(=O)N[C@@H](Cc1ccncc1)C(=O)N[C@@H](Cc1ccccc1)C(=O)N[C@H](C(=O)N[C@H](CCC(=O)O)C(=O)N[C@@](C)(Cc1ccc(O)cc1)C(=O)N[C@@H](CC(C)C)C(=O)N[C@H](C(=O)N[C@@H](CCC(=O)O)C(=O)NCC(=O)NCC(=O)N1CCC[C@H]1C(=O)N[C@@H](CO)C(=O)N[C@@H](CO)C(=O)NCC(=O)N[C@@H](C)C(=O)N1CCC[C@H]1C(=O)N1CCC[C@H]1C(=O)N1CCC[C@H]1C(=O)N[C@@H](CO)C(N)=O)[C@@H](C)CC)[C@@H](C)CC)C(=O)O [Example 415] | 0.156 nM | 0.0152 nM | 93.9% | 0.00991 nM | > 9950 nM | > 9950 nM | 109% | 0.122 nM |  |  |  |  | 
2 | CCCCCCCCCCCC(=O)N[C@@H](CCC(=O)NCCOCCOCC(=O)NCCOCCOCC(=O)NCCOCCOCC(=O)NCCCC[C@H](NC(=O)[C@H](CCCN)NC(=O)[C@H](CC(=O)O)NC(=O)[C@H](CC(C)C)NC(=O)[C@](C)(CC(C)C)NC(=O)[C@@H](NC(=O)C(C)(C)NC(=O)[C@H](Cc1ccncc1)NC(=O)[C@H](CC(=O)O)NC(=O)[C@H](CO)NC(=O)[C@@H](NC(=O)[C@](C)(Cc1ccccc1F)NC(=O)[C@@H](NC(=O)CNC(=O)[C@H](CCC(=O)O)NC(=O)C(C)(C)NC(=O)[C@@H](N)Cc1ccc(O)cc1)[C@@H](C)O)[C@@H](C)O)[C@@H](C)CC)C(=O)N[C@@H](C)C(=O)N[C@@H](CCC(N)=O)C(=O)NC(C)(C)C(=O)N[C@@H](CCCCNC(=O)COCCOCCNC(=O)COCCOCCNC(=O)COCCOCCNC(=O)CC[C@H](NC(=O)CCCCCCCCCCC)C(=O)O)C(=O)N[C@@H](Cc1ccccc1)C(=O)N[C@H](C(=O)N[C@H](CCC(=O)O)C(=O)N[C@@](C)(Cc1ccc(O)cc1)C(=O)N[C@@H](CC(C)C)C(=O)N[C@H](C(=O)N[C@@H](CCCN)C(=O)NCC(=O)NCC(=O)N1CCC[C@H]1C(=O)N[C@@H](CO)C(=O)N[C@@H](CO)C(=O)NCC(=O)N[C@@H](C)C(=O)N1CCC[C@H]1C(=O)N1CCC[C@H]1C(=O)N1CCC[C@H]1C(=O)N[C@@H](CO)C(N)=O)[C@@H](C)CC)[C@@H](C)CC)C(=O)O [Example 433] | 0.187 nM | 0.0175 nM | 100% | 0.00972 nM | > 9950 nM | > 9950 nM |  | 0.128 nM | 94% | 2.63 nM |  |  | 
3 | CCCCCCCCCCCC(=O)N[C@@H](CCC(=O)NCCOCCOCC(=O)NCCOCCOCC(=O)NCCCC[C@H](NC(=O)[C@H](CCCN)NC(=O)[C@H](CC(=O)O)NC(=O)[C@H](CC(C)C)NC(=O)[C@](C)(CC(C)C)NC(=O)[C@@H](NC(=O)C(C)(C)NC(=O)[C@H](CCCCNC(=O)COCCOCCNC(=O)COCCOCCNC(=O)CC[C@H](NC(=O)CCCCCCCCCCC)C(=O)O)NC(=O)[C@H](CC(=O)O)NC(=O)[C@H](CO)NC(=O)[C@@H](NC(=O)[C@](C)(Cc1ccccc1F)NC(=O)[C@@H](NC(=O)CNC(=O)[C@H](CCC(=O)O)NC(=O)C(C)(C)NC(=O)[C@@H](N)Cc1ccc(O)cc1)[C@@H](C)O)[C@@H](C)O)[C@@H](C)CC)C(=O)N[C@@H](C)C(=O)N[C@@H](CCC(N)=O)C(=O)NC(C)(C)C(=O)N[C@@H](CCCN)C(=O)N[C@@H](Cc1ccccc1)C(=O)N[C@H](C(=O)N[C@H](CCC(=O)O)C(=O)N[C@@](C)(Cc1ccc(O)cc1)C(=O)N[C@@H](CC(C)C)C(=O)N[C@H](C(=O)N[C@@H](CCC(=O)O)C(=O)NCC(=O)NCC(=O)N1CCC[C@H]1C(=O)N[C@@H](CO)C(=O)N[C@@H](CO)C(=O)NCC(=O)N[C@@H](C)C(=O)N1CCC[C@H]1C(=O)N1CCC[C@H]1C(=O)N1CCC[C@H]1C(=O)N[C@@H](CO)C(N)=O)[C@@H](C)CC)[C@@H](C)CC)C(=O)O [Example 417] | 0.167 nM | 0.0214 nM | 96.4% | 0.00651 nM | > 9950 nM | > 9950 nM | 109% | 0.0675 nM |  | 2.66 nM |  |  | 
4 | CCCCCCCCCCCC(=O)N[C@@H](CCC(=O)NCCOCCOCC(=O)NCCOCCOCC(=O)NCCCC[C@H](NC(=O)[C@H](CCCN)NC(=O)[C@H](CC(=O)O)NC(=O)[C@H](CC(C)C)NC(=O)[C@](C)(CC(C)C)NC(=O)[C@@H](NC(=O)[C@H](CO)NC(=O)[C@H](Cc1ccncc1)NC(=O)[C@H](CC(=O)O)NC(=O)[C@H](CO)NC(=O)[C@@H](NC(=O)[C@](C)(Cc1ccccc1F)NC(=O)[C@@H](NC(=O)CNC(=O)[C@H](CCC(=O)O)NC(=O)C(C)(C)NC(=O)[C@@H](N)Cc1ccc(O)cc1)[C@@H](C)O)[C@@H](C)O)[C@@H](C)CC)C(=O)N[C@@H](C)C(=O)N[C@@H](CCC(N)=O)C(=O)NC(C)(C)C(=O)N[C@@H](CCCCNC(=O)COCCOCCNC(=O)COCCOCCNC(=O)CC[C@H](NC(=O)CCCCCCCCCCC)C(=O)O)C(=O)N[C@@H](Cc1ccccc1)C(=O)N[C@H](C(=O)N[C@H](CCC(=O)O)C(=O)N[C@@](C)(Cc1ccc(O)cc1)C(=O)N[C@@H](CC(C)C)C(=O)N[C@H](C(=O)N[C@@H](CCCN)C(=O)NCC(=O)NCC(=O)N1CCC[C@H]1C(=O)N[C@@H](CO)C(=O)N[C@@H](CO)C(=O)NCC(=O)N[C@@H](C)C(=O)N1CCC[C@H]1C(=O)N1CCC[C@H]1C(=O)N1CCC[C@H]1C(=O)N[C@@H](CO)C(N)=O)[C@@H](C)CC)[C@@H](C)CC)C(=O)O [Example 298] | 0.119 nM | 0.0131 nM |  | 0.0107 nM | > 9950 nM |  |  | 0.19 nM | 97.4% |  | 95% | > 9950 nM | 
5 | CC[C@H](C)[C@H](NC(=O)[C@H](CC(C)C)NC(=O)[C@](C)(Cc1ccc(O)cc1)NC(=O)[C@H](CCCCNC(=O)COCCOCCNC(=O)CCCCCNC(=O)CC[C@H](NC(=O)CCCCCCCCCCCCC(=O)O)C(=O)O)NC(=O)[C@@H](NC(=O)[C@H](Cc1ccccc1)NC(=O)[C@H](CCCN)NC(=O)C(C)(C)NC(=O)[C@H](CCC(N)=O)NC(=O)[C@H](C)NC(=O)[C@H](CCC(N)=O)NC(=O)[C@H](CCCN)NC(=O)[C@H](CC(=O)O)NC(=O)[C@H](CC(C)C)NC(=O)[C@](C)(CC(C)C)NC(=O)[C@@H](NC(=O)C(C)(C)NC(=O)[C@H](Cc1ccncc1)NC(=O)[C@H](CC(=O)O)NC(=O)[C@H](CO)NC(=O)[C@@H](NC(=O)[C@](C)(Cc1ccccc1F)NC(=O)[C@@H](NC(=O)CNC(=O)[C@H](CCC(=O)O)NC(=O)C(C)(C)NC(=O)[C@@H](N)Cc1ccc(O)cc1)[C@@H](C)O)[C@@H](C)O)[C@@H](C)CC)[C@@H](C)CC)C(=O)N[C@@H](CCCCNC(=O)COCCOCCNC(=O)CCCCCNC(=O)CC[C@H](NC(=O)CCCCCCCCCCCCC(=O)O)C(=O)O)C(=O)NCC(=O)NCC(=O)N1CCC[C@H]1C(=O)N[C@@H](CO)C(=O)N[C@@H](CO)C(=O)NCC(=O)N[C@@H](C)C(=O)N1CCC[C@H]1C(=O)N1CCC[C@H]1C(=O)N1CCC[C@H]1C(=O)N[C@@H](CO)C(N)=O [Example 449] | 0.201 nM | 0.0133 nM | 92.1% | 0.0102 nM | > 9950 nM | > 9950 nM | 112% | 0.16 nM |  |  |  |  | 0.595 nM
